Columns and labels:
[1] = Soil washing: amount of oil removed from contaminated sand
Method: Oil-contaminated soil was prepared in the following manner. North Sea crude oil (2.4 to 2.6 g) (Chevron, San Ramon, Calif., USA) was poured into a beaker. Tetrahydrofuran (THF) (to dissolution, approximately 50 mL) was added and the beaker and its contents were swirled to dissolve the oil. Ottawa sand (60 g) (EMD Chemicals, Gibbstown N.J., USA) was poured into the beaker and the contents of the beaker was swirled again. The beaker was left uncovered overnight at room temperature to allow the THF to evaporate. Then, the sand was broken up and mixed in the beaker. The beaker was left uncovered for a further time period so that total elapsed time for evaporation was 24 hours. The contaminated sand was then poured into a pre-weighed petrie dish, which was then placed into an oven at 110° C. and heated for 24 hours. After the petrie dish was removed from the oven and had cooled to room temperature, the sample and dish were weighed together. The contaminated sand was then transferred to a 100 mL amber vial for storage. This heat treatment was intended to simulate weathering of the contaminated soil. This procedure provided a sample of soil with 3.0 wt % oil contamination.
A 0.5 wt % surfactant solution was prepared in the following manner: surfactant (0.25 g) was added to a 50 mL volumetric flask. Deionized water at room temperature was added to achieve a total mass of 50 g. Sonication of the solution assisted with dissolving the surfactant.
A 0.5 wt % surfactant solution was prepared in the following manner: Deionized water was heated to 50° C. Surfactant (0.25 g) was added to a 50 mL volumetric flask. The heated water was added to achieve a total mass of 50 g. Swirling and shaking of the flask was sufficient to dissolve the surfactant.
A 0.1 wt % surfactant solution was also prepared using the above-described procedure wherein 0.0583 g of surfactant was used.
The contaminated sand of Example 7A was washed in the following manner. Three 20 mL vials were labelled and their empty masses were, recorded. Contaminated sand (5.1 g) was added to each vial and the vial's new masses were recorded. The surfactant solution was added to each vial using a syringe to achieve 10 g of solution. A stir bar was also added. The vials were capped with TEFLON®-lined lids and shaken manually for 20 seconds. The vials were placed in a beaker, to keep them upright. The beaker was placed on a stir plate and the vials were stirred at 470 rpm for 1 hour. Each vial was then manually shaken for 20 seconds. Then the stirring was continued for a second hour. The liquid portion of the samples was poured into separate 20 mL vials and is referred to below as “first decant solution”. The original vials (and their remaining contents) were each rinsed with 50 mL of deionized water and that rinse water was then added to 50 mL Wheaton jars and is referred to below as “wash solution”.
Sand washing was also carried out at elevated temperature by following the procedure as described in Example 7D with the difference that vials were placed into a 50° C. water bath. The water bath was placed on a stirring hot plate and was maintained 50° C. and the vials were stirred at 470 rpm for 1 hour. Each vial was then manually shaken for 20 seconds. Then the stirring was continued for a second hour. The liquid portion of the samples was poured into separate 20 mL vials and is referred to below as “first decant solution”. The original vials were each rinsed with 50 mL of deionized water and that rinse water was then added to 50 mL Wheaton jars and is referred to below as “wash solution”.
Oil remaining on the soil of Examples 7A-E was quantified in the following manner. An extraction was performed using 10 mL of a 1:1 dichloromethane:hexanes liquid mixture. This mixture was added to vials housing washed sand (the term “washed sand” refers to 5.1 g of contaminated sand from Example 7A that has been washed and rinsed using the procedures of Example 7D or 7E). […]

[2] = Switchability using DMSO-d6 (CO2 bubbling, 1H NMR); assay type: physicochemical; settings: 0.01 M solution in DMSO-d6, non-aqueous
Text: (§1) Since n-octyl 4-hydroxy-3-nitrobenzoate (1N) and the […] salt of (1A) are soluble in DMSO and have some characteristic signals in the ^1H NMR spectrum, […] was used as a solvent to monitor the non-aqueous switchability by NMR spectroscopy.

[3] = Solubility observations (aqueous solution, DMSO); assay type: physicochemical; settings: DMSO
Text: The following study confirmed that compounds (1A) and (1N) reversibly convert from the neutral form (1N) to the anionic form (1A) and back to the neutral form over and over again with substantially no loss of product. The conversion was verified visually since the neutral form was not soluble in aqueous solution and appeared as a white precipitate in colourless liquid while the anionic form was fully soluble in aqueous solution and appeared as a clear yellow liquid (see FIG. 2). In addition to visual examination, ^1H NMR studies that are described below confirmed the presence of the hydroxyl proton in the spectra of the neutral form.
as §1

[4] = 50° C. Washing, 0.5 wt % surfactant solution
[5] = Room Temperature Washing, 0.5 wt % surfactant solution

Compound | Amount of oil removed from sand [1, 4] | Amount of oil removed from sand ([1]; Room Temperature Washing, 0.5 wt % surfactant solution, Sulfate) [%] | Amount of oil removed from sand ([1]; Room Temperature Washing, 0.5 wt % surfactant solution, listed as sodium dodecyl sulfate (SDS), Sulfate) [%] | Amount of oil removed from sand ([1]; 50° C. Washing, 0.1 wt % surfactant solution) [%] | Amount of oil removed from sand [1, 5] [%] | conversion on CO2 bubbling by 1H NMR [2] | solubility in DMSO [3]
CCCCCCCCCCCCOS(=O)(=O)[O-].[Na+] [Sodium Dodecyl Sulfate (SDS), Sodium Dodecyl Sulfate] | 86% | 40 | 40 | – | – | – | –
CCCCCCCCOC(=O)c1ccc(O)c([N+](=O)[O-])c1.[Na] [Sodium octyl 4-hydroxy-3-nitrobenzoate] | 94-97% | – | – | 94 | 82 | – | –
Triton X-100 | 94% | – | – | – | 68 | – | –
potassium 4-hydroxy-3-nitrobenzoate [potassium salt of (1A)] | – | – | – | – | – | no conversion was apparent | soluble
